Legend:
[1] = literature-reported biology of the tentatively identified metabolite; no reference given; cited from earlier work
[2] = design: method as in PMID 28441771, PMID 29231907, PMID 28587113; conditions: preclinical and clinical studies; cited from earlier work
Cal27 and JHU029 cells = experiment: HNC cell cytotoxicity assay of other bitter melon compounds (Figure S1); format: cell-based, human; conditions: 48 hr
Description: Cal27, JHU029, JHU022 and NOK were seeded in 96 well-plate (5000 cells/well) and cells were treated with different concentration of M-I for 48 h. There were untreated control and DMSO treated vehicle control group for comparison. Cytotoxicity assay was performed using Cell Counting Kit-8 (Dojindo Molecular Technology, Rockville, MD, USA) according to manufacturer instruction.
Supplementary Materials: Momordicine-I, a Bitter
Activity in Head and Neck Cancer Involving c-Met
Figure S1. Cal27 and JHU029 ells were treated with momordicine-I (M-I), momordicosideK (MK), karavilageninD (KD) at indicated doses for 48 hr and cytotoxicity assay was performed. Small bar indicates standard error.
Figure S2. Whole blot for Figure 2A. […]

Which “Reported Biology” value [1] does the source give for `CO[C@H]1C=C2[C@@H](CC[C@H](O[C@@H]3O[C@H](CO)[C@@H](O)[C@@H](O)[C@H]3O)C2(C)C)[C@]2(C)CC[C@]3(C)[C@@H]([C@H](C)C/C=C/C(C)(C)O)CC[C@@]3(C)[C@H]12` [Karaviloside III] here?
Its value is “cytotoxic activity against Hep3B and HepG2 cell lines”.

Which adverse side effects [2] does the source give for `CN1CCN(C2CCN(C(=O)Nc3cc(Oc4ccc(NC(=O)C5(C(=O)Nc6ccc(F)cc6)CC5)c(F)c4)ccn3)CC2)CC1` [Golvatinib] here?
The adverse side effects was “supraventricular tachycardia, convulsion, and pulmonary embolism”.

With `C[C@H](C/C=C/C(C)(C)O)[C@H]1CC[C@@]2(C)[C@@H]3[C@@H](O[C@@H]4O[C@H](CO)[C@@H](O)[C@H](O)[C@H]4O)C=C4[C@@H](CC[C@H](O)C4(C)C)[C@]3(C=O)CC[C@]12C` [Momordicoside L] as the molecule, how does the “Reported Biology” value [1] read?
Its value is “Weak α-glucosidase inhibition”.

For `C[C@H](C/C=C/C(C)(C)O)[C@H]1CC[C@@]2(C)[C@@H]3C=C[C@@]45OC(=O)[C@]3(CC[C@]12C)[C@@H]4CC[C@H](O)C5(C)C` [KD, karavilagenin D], which “amount required for ~40% cell death” value (Cal27 and JHU029 cells) is on record?
Its value is greater than 50 µg/mL.

For Sacranoside A, which “Reported Biology” value [1] is on record?
The value was “nitric oxide inhibitory effect”.

Which adverse side effects [2] does the source give for `COc1cc2c(Oc3ccc(NC(=O)C4(C(=O)Nc5ccc(F)cc5)CC4)cc3F)ccnc2cc1OCCCN1CCOCC1` [Foretinib] here?
Its adverse side effects is “fatigue, hypertension, and gastrointestinal toxicities”.

For `C[C@H](C[C@@H](O)[C@H](O)C(C)(C)O)[C@H]1CC[C@@]2(C)[C@@H]3C=C[C@@]45OC[C@]3(CC[C@]12C)[C@@H]4CC[C@H](O[C@@H]1O[C@H](CO)[C@@H](O)[C@@H](O)[C@H]1O)C5(C)C` [Karaviloside XI], which “Reported Biology” value [1] is on record?
The value was “Antidiabetic”.

For `COC(C)(C)/C=C/C[C@@H](C)[C@H]1CC[C@@]2(C)[C@@H]3[C@@H](O[C@@H]4O[C@H](CO)[C@@H](O)[C@H](O)[C@H]4O)C=C4[C@@H](CC[C@H](O)C4(C)C)[C@]3(C=O)CC[C@]12C` [MK, momordicoside K], which “amount required for ~40% cell death” value (Cal27 and JHU029 cells) is on record?
Its value is greater than 50 µg/mL.

Source: paper PMC8003975 (Cancers, 2021)
